≈ marks a conversion by molar mass, not a printed value.

The target in one data set is MMP-7 (Homo sapiens (Human), UniProt P09237). The settings on record: at 250 μM; data from Gooyit et al. 2014; cited from earlier work.
A short description of a further data set: physchem. The conditions noted are these: water, thermodynamic from solid.
The target in the next data set is MMP-1 (Homo sapiens (Human), UniProt P03956). The conditions noted are these: at 250 μM; data from Gooyit et al. 2014; cited from earlier work.
MMP-1, sequence (P03956 98-276): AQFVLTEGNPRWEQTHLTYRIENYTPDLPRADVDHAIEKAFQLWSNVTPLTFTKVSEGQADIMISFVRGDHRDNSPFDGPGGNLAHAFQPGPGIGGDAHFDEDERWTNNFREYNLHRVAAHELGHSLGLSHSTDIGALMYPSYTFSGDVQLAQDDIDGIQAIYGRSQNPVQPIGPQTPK
The target in another data set is ADAM10 (Homo sapiens (Human), UniProt O14672). In words: Enzyme inhibition studies, ADAM10. It counts as biochemical.
ADAM10, sequence (O14672 214-672): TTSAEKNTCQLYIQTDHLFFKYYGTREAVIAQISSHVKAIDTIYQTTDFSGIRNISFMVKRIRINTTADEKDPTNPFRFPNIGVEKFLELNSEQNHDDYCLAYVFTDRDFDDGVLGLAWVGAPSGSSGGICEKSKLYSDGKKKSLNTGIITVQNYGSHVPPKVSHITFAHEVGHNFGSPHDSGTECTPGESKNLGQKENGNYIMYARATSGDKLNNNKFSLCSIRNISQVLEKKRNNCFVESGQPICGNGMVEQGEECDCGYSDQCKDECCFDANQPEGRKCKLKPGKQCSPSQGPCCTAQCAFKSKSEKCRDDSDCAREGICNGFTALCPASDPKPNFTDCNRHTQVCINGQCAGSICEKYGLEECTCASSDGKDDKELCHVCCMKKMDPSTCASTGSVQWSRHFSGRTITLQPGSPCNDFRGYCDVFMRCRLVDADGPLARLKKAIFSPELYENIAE
A further data set concerns the target ADAM9 (Homo sapiens (Human), UniProt Q13443). Briefly: Enzyme inhibition studies, ADAM9. It counts as biochemical.
A further data set relates to diabetic (db/db) mice. In words: Mouse diabetic wound model. It counts as in vivo. The conditions noted are these: selective MMP-9 inhibition; in words. An excerpt: The excisional mouse diabetic model validated by Sullivan et al. was used (Sullivan et al., Plast. Reconstr. Surg. (2004) 113, 953-960). The procedure for inflicting the wounds (single 8 mm wound on the dorsal region) was the same as described previously (Gooyit et al., ACS Chem. Biol. (2014) 9, 505-510). Wounds were photographed and covered with a sterile 3M Tegaderm™ transparent dressing (Butler Schein Animal Health, Inc.).
Female diabetic db/db (BKS.Cg-Dock7m+/+Leprdb/J, 8-weeks old, 38±3 g, n=24) were used for this study. Wounds were inflicted as described. Treatment with the MMP-2 inhibitor (50 μL of 5.0 mg/mL in 80% propylene glycol/20% DMSO, equivalent to 0.25 mg per wound) or vehicle (50 μL of 80% propylene glycol/20% DMSO) was started one day after wound infliction and continued once a day for 14 days. Digital photographs of wounds were taken on days 0, 7, 10, and 14 while the animals were under isoflurane anesthesia. On day 14, all mice were sacrificed. The wounds were excised, embedded in optimal cutting temperature (OCT) compound, and cryosectioned for histological evaluation.
Female diabetic db/db (BKS.Cg-Dock7m+/+Leprdb/J, 8-weeks old, 38±3 g, n=24) were used for this study. Wounds were inflicted and the following day the wounds were treated topically with MMP-8 (50 μL of 20 μg/mL MMP-8 in reaction buffer) or vehicle (50 μL reaction buffer) once a day for 14 days. The reaction buffer consisted of 50 mM Tris (pH 7.5), 10 mM CaCl2, 150 mM NaCl, and 0.05% (w/v) Brij-35. Digital photographs of the wounds were taken on days 0, 7, 10, and 14 while animals were under isoflurane anesthesia. On days 7 and 14, 12 mice (n=6 per group) were sacrificed. The wounds were excised, embedded in OCT compound, and cryosectioned for histological evaluation.
Photographs were taken using the procedure described by Gooyit et al. (ACS Chem Biol. (2014) 9, 505-510) at a fixed distance above the wounds and calibrated using a ruler included in the photographic frame. Image J 1.48c software was used to calculate wound areas. The percentage of wound closure was calculated from the wound area on the specified day relative to that on day 0.
Fresh wound tissue was harvested and embedded in OCT compound. Subsequently, the tissue was cryosectioned for H&E staining (12-μm thickness) and for apoptosis assays and in-situ zymography (8-μm thickness). Re-epithelialization was assessed on a Nikon Eclipse 90i Fluorescent Microscope (Nikon Instruments Inc.) as described earlier (Tkalcevic et al., Toxicol. Pathol. (2009) 37, 183-192). Apoptosis was evaluated using Derma TACS™ Apoptosis detection kits (Trevigen, Inc.) according to the manufacturer's instructions. The protocol of in-situ zymography was adapted from known methods. Gelatinolytic activity was detected in unfixed cryostat sections using DQ-gelatin as a substrate. DQ-gelatin was prepared at a concentration of 20 μg/mL in Tris-buffered saline (TBS) buffer (50 mM TBS pH 7.6, 1 mM CaCl2). A general MMP inhibitor in 0.5 mM EDTA was prepared as a negative control. Cryostat sections were air-dried for 10 min and incubated in the substrate mixture in the presence and absence of EDTA for 1 hr at room temperature. After the incubation period, the slides were washed in PBS (three times, 5 min each), fixed with 4% paraformaldehyde in PBS for 10 min in the dark, washed again with PBS (three times, 5 min each), incubated in the dark for 5 min with 300 nM DAPI solution, and mounted with anti-quenching mounting medium. Fluorescence of FITC was detected with excitation at 460-500 nm and emission at 512-542 nm. DAPI was detected with excitation at 340-380 nm and emission at 425-∞ nm.
Data are expressed as mean±SD. Wound healing between the groups in the studies were analyzed for statistical significance using a paired Student t-test, where p<0.05 was considered statistically significant.

Data set [1] deals with non-diabetic wounds. Briefly: Healing of non-diabetic wounds. It counts as in vivo, mice. The conditions noted are these: in words.
The test system of data set [2] is non-diabetic wounds. The settings on record: rats, pigs, and humans; in words; cited from earlier work.

ADAM9, sequence (Q13443 206-697): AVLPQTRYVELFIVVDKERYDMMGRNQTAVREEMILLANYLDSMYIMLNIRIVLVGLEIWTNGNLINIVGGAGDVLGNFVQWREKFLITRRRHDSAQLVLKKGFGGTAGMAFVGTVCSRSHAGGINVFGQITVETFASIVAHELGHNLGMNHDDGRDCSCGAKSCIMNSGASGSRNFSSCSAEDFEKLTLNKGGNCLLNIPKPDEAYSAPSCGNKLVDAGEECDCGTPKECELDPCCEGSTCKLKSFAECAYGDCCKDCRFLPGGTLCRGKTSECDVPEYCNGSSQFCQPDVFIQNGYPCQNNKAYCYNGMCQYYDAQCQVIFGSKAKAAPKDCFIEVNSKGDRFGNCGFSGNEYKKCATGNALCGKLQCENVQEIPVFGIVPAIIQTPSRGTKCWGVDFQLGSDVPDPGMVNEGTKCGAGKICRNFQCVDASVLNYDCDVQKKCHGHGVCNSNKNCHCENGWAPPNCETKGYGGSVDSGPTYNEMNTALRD
MMP-7, sequence (P09237 95-267): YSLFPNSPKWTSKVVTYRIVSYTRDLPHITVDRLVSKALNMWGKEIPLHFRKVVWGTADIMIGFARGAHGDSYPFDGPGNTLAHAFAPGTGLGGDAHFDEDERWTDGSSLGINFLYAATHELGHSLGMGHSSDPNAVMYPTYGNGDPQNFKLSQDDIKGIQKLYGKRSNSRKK

As to `Nc1ccc(Oc2ccc(S(=O)(=O)CC3CS3)cc2)cc1` (centres unmarked) [Compound 2], the Inhibition was 16%^i, j at MMP-7 and 10%^i, j on MMP-1. Further, the concentration in solution in “physchem” (solubility) was 4900 µg/mL (≈ 15.2 mM). Besides, the inhibition at 20 µM is 21% against ADAM10 and 30% against ADAM9. In addition, the “healing of diabetic wounds” value with diabetic (db/db) mice is on record as “healed more rapidly”. Also, the “effect on non-diabetic wounds” value with non-diabetic wounds [1] is listed as “does not show any effect”.

Regarding `CNC(=O)[C@H](Cc1c[nH]c2ccccc12)NC(=O)[C@@H](CC(=O)NO)CC(C)C` [ilomastat], in the data set on non-diabetic wounds [2], the “wound closure and epithelialization in non-diabetic wounds” value was “delayed wound closure and diminished epithelialization”.

The record behind these values is US9951035B2, “Selective matrix metalloproteinase inhibitors” (University of Notre Dame du Lac, priority 2014, dated 2018).
